Values of other authors as cited in patent US10092644B2, “Use of fluorinated cyclic dinucleotides as oral vaccine adjuvants” (BROCK UNIVERSITY, priority 2013, dated 2018).

System: S. penuemoniae pneumolysin toxid (PdB) or pneumococal surface protection (PspA)
Conditions: mice, interperitoneally, PdB or PspA adjuvanted with c-di-GMP (Chen et al. 2010; Ogunniyi et al. 2008); cited from earlier work

SMILES: Nc1nc2c(ncn2C2OC3COP(=O)(O)OC4C(COP(=O)(O)OC3C2O)OC(n2cnc3c(=O)[nH]c(N)nc32)C4O)c(=O)[nH]1 (stereo not shown) [c-di-GMP, 3′,5′-cyclic diguanylic acid]
- antigen-specific antibody response: enhanced
